These results are taken from paper PMC5049494, “Nitrotriazole-based acetamides and propanamides with broad spectrum antitrypanosomal activity” (European Journal of Medicinal Chemistry, 2016).

Where two headings read alike, the source gives them in different places.

Series [1] deals with transgenic T. cruzi parasites expressing firefly luciferase. The series is classed as in vivo, Balb/c mice. The procedure:
A fast luminescence assay was used in an acute infected murine model, in which transgenic T. cruzi parasites expressing firefly luciferase were injected in 5 week-old Balb/c mice. Mice were injected with D-luciferin before imaging. Groups of 5 mice/group were treated i.p. for 10 consecutive days with each compound, at 13 or 15 mg/kg/day. […] The mean ratio of parasite levels was calculated after 5 and 10 days of treatment.
For in vivo studies, a Brazilian strain trypomastigotes from transgenic T. cruzi parasites expressing firefly luciferase were used as described before. Briefly, parasites (10^5 trypomastigotes) were injected in 5 week-old Balb/c mice (Taconic) and three days later mice were anesthesized by inhalation of isofluorane, followed by an injection with 150 mg/kg of D-luciferin potassium-salt in PBS. Mice were imaged 5–10 min after injection of luciferin with an IVIS 100 (Xenogen, Alameda, CA) and the data acquisition and analysis were performed with the software LivingImage (Xenogen) as described before. Treatment with test compounds started 4 days post infection at 13 or 15 mg/kg/day × 10 days, given i.p. The vehicle control was 2% methylcellulose +0.5% Tween 80 and groups of 5 mice/group were used. Mice were imaged after 5 and 10 days of treatment. The ratio of parasite levels was calculated for each animal dividing the luciferase signal after treatment by the luciferase signal on the first imaging (before treatment). Mean values of all animals in each group ± SD were used for plotting.

The test system of series [2] is bloodstream form T.b. brucei wild type. Description: T. brucei antiproliferating assay, wild type. The series is classed as cell-based. The following applies: means from 4 experiments ± SD. The procedure:
The BSF of T. brucei parasites were seeded at 1 × 10^3 mL^−1 in 200 μL of growth medium containing different concentrations of nitroheterocycle. Where appropriate, induction of the TbNTR was carried out by adding tetracycline (1 μg/mL). After incubation for 3 days at 37 °C, 20 μL of Alamar blue was added to each well and the plates incubated for a further 16 h. The cell density of each culture was determined as described before and the IC50 established.

Series [3] relates to purified his-tagged recombinant TbNTR. Description: Enzymatic activity with type I TbNTR. The format is biochemical, T. brucei. The following applies: substrate 100 μM, NADH 100 μM. The procedure: Enzyme specific activity was measured as oxidized NADH (nmol) per min per mg of protein. […] As we have reported before with other classes of 3-nitrotriazole-based antitrypanosomal compounds, no correlation between anti-HAT activity and TbNTR specific activity was observed, [13], [15], [16], [17], [18].
Recombinant TbNTR was prepared and assayed as previously described, [39]. The specific activity of purified his-tagged TbNTR was assessed spectrophotometrically at 340 nm using various nitrotriazole substrates (100 μM) and NADH (100 μM) and expressed as nmol NADH oxidized min^−1 mg^−1 of enzyme.

For series [4], the system named is L. donovani axenic, strain MHOM-ET-67/L82 amastigotes. Description: In vitro activity against L. donovani. The format is cell-based. The settings on record: for IC50: Leishmania donovani, L. donovani axenic amastigotes MHOM-ET-67/L82, means of 2 to 3 measurements, SD < 5%, read-out: L.d. IC50; for SI (L.d.): IC50 in L6 cells/IC50 in L. donovani; for antileishmanial activity class (TDR criteria): L. donovani.
Procedure: (§3) The concentration of compound that inhibits parasite growth by 50% (IC50) was calculated from dose response curves for each parasite (Table 1). In addition, compounds were tested for toxicity in L6 rat skeletal myoblasts, the host cells for T. cruzi amastigotes, in order to calculate a selectivity index for each parasite [SI = IC50L6/IC50parasite]
(§4) In vitro activity against T. cruzi, T. b. rhodesiense, L. donovani and cytotoxicity assessment using L6 cells (rat skeletal myoblasts) was determined using a 96-well plate format as previously described [37]. Data were analyzed with the graphic program Softmax Pro (Molecular Devices, Sunnyvale, CA, USA), which calculated IC50 values by linear regression from the sigmoidal dose inhibition curves.

The subject of series [5] is T. cruzi, strain Tulahuen C4 amastigotes. Kind of series: In vitro activity against T. cruzi. The format is cell-based. The settings on record: for SI (T. c.): IC50 in L6 cells/IC50 in T. cruzi; for IC50: Trypanosoma cruzi, T. cruzi Tulahuen C4 amastigotes, means of 2 to 3 measurements, SD < 5%, read-out: T. c. IC50; for Bnz/comp: fold antichagasic potency relative to Bnz (T. cruzi IC50 ratio).
Procedure: as §3, §4

The nature of series [6]: Cytotoxicity in the host L6 cells. The format is cell-based, rat. The following applies: rat, L6 cells (rat skeletal myoblasts); cytotoxicity in host L6 cells; read-out: Cyt. L6 IC50. The protocol:
(§1) Compounds in Table 1 were screened for anti-parasitic activity against three trypanosomatids: T. cruzi, T. b. rhodesiense and Leishmania donovani and compared with previously made analogs shown in orange and designated with a. […] In addition, compounds were tested for toxicity in L6 rat skeletal myoblasts, the host cells for T. cruzi amastigotes, in order to calculate a selectivity index for each parasite [SI = IC50L6/IC50parasite] (Table 1). The TDR (Special Programme for Research and Training in Tropical Diseases, World Health Organization) criteria were adopted to interpret antiparasitic activity and selectivity.
(§2) In vitro activity against T. cruzi, T. b. rhodesiense, L. donovani and cytotoxicity assessment using L6 cells (rat skeletal myoblasts) was determined using a 96-well plate format as previously described. Data were analyzed with the graphic program Softmax Pro (Molecular Devices, Sunnyvale, CA, USA), which calculated IC50 values by linear regression from the sigmoidal dose inhibition curves.

Series [7] has as its system T.b. rhodesiense, strain STIB 900 trypomastigotes. Description: In vitro activity against T. b. rhodesiense. The following applies: for SI (T.b.r.): IC50 in L6 cells/IC50 in T.b. rhodesiense; for IC50: Trypanosoma brucei, T.b. rhodesiense STIB 900 trypomastigotes, means of 2 to 3 measurements, SD < 5%, read-out: T.b.r. IC50; for fold more potent against T. b. rhodesiense than the corresponding acetamide: propanamide vs acetamide analog; for anti-HAT activity class (TDR criteria): T. b. rhodesiense. The format is cell-based. The protocol:
as §1, §2

The subject of series [8] is bloodstream form T.b. brucei recombinant parasites expressing wild type (-tet) or elevated (+tet) levels of TbNTR. Kind of series: microbe, parasite or virus in culture. The following applies: Trypanosoma brucei. The format is cell-based.
Procedure: The BSF of T. brucei parasites were seeded at 1 × 10^3 mL^−1 in 200 μL of growth medium containing different concentrations of nitroheterocycle. Where appropriate, induction of the TbNTR was carried out by adding tetracycline (1 μg/mL). After incubation for 3 days at 37 °C, 20 μL of Alamar blue was added to each well and the plates incubated for a further 16 h. The cell density of each culture was determined as described before [20] and the IC50 established.
The subject of series [9] is T. cruzi, strain Tulahuen C4 amastigotes. The settings on record: cited from earlier work; for Bnz/comp: fold potency relative to Bnz.
Series [10] has as its system T.b. rhodesiense, strain STIB 900 trypomastigotes. Also on record: method as in PMID 26344593, PMID 25580906. The settings on record: cited from earlier work; for IC50: previously evaluated compounds (orange, designated a), read-out: T.b.r. IC50.
Series [11] has as its system L6 cells (rat skeletal myoblasts). Also on record: method as in PMID 26344593, PMID 25580906. The following applies: previously evaluated compounds (orange, designated a); read-out: Cyt. L6 IC50; cited from earlier work.
The test system of series [12] is L. donovani axenic, strain MHOM-ET-67/L82 amastigotes. Also on record: method as in PMID 26344593, PMID 25580906. The following applies: cited from earlier work; for IC50: previously evaluated compounds (orange, designated a), read-out: L.d. IC50.
The mark [13] stands for this setting: Trypanosoma brucei, read-out: IC50 value T.b. brucei Wild type, bloodstream form.
The mark [14] stands for this setting: read-out: IC50 value T.b. brucei TbNTR (+tet).
The mark [15] stands for this setting: read-out: IC50 value T.b. brucei TbNTR (-tet).
[16] abbreviates: IC50 L6/IC50 parasite, previously evaluated compounds.

In the case of `O=C(CCn1cnc([N+](=O)[O-])n1)Nc1ccc(Oc2ccc(Cl)cc2)cc1` [Compound 6, N-(4-(4-chlorophenoxy)phenyl)-3-(3-nitro-1H-1,2,4-triazol-1-yl)propanamide], the “toxicity symptoms in treated mice” value in series [1] (13 mg/kg/day i.p. x 10 days) is “did not look very healthy, although no deaths occurred”. In series [1] (13 mg/kg/day i.p. x 10 days, acute murine model, p < 0.0001), the “parasite load after 10 days of treatment” value was “undetectable levels”. Besides, in series [1] (13 mg/kg/day i.p., compared to untreated control), the “parasitic level after 5-day treatment” value is “Statistically significant reduction in parasitic level”. In addition, the IC50 was around 650 nM in series [2] (setting [13]); 640 ± 20 nM in series [2] (read-out: IC50 value T.b. brucei Wild type, bloodstream form); 1150 nM in series [4]; 5 nM in series [5]; 17300 nM in series [6]; 41 nM in [7]. For the same compound, the IC50 in series [8] (setting [14]) is 340 nM; in [8] (setting [15]), 620 ± 30 nM. In [3], the “TbNTR specific enzyme activity, fold greater than benznidazole” value is reported as at most 4 fold. In addition, the “SI (T. c.)” value in series [5] was 3343. Besides, in series [5], the Bnz/comp came to 441. For the same compound, the “SI (T.b.r.)” value in [7] was 418. Moreover, the “fold more potent against T. b. rhodesiense than the corresponding acetamide” value in series [7] was determined as 32 fold.
In the case of `O=C(Cn1cnc([N+](=O)[O-])n1)Nc1cc(-c2ccc(F)cc2)on1` [Compound 13, N-(5-(4-fluorophenyl)isoxazol-3-yl)-2-(3-nitro-1H-1,2,4-triazol-1-yl)acetamide], the melting point was above 220 °C. The IC50 in [2] (setting [13]) was found to be 26600 ± 6020 nM. Moreover, the “TbNTR specific enzyme activity, fold greater than benznidazole” value in [3] was at most 4 fold. For the same compound, in [4], the “SI (L.d.)” value was 20.5, the “antileishmanial activity class (TDR criteria)” value (“antileishmanial activity class” below) was “inactive” and the IC50 came to 9790 nM. In series [5], the “SI (T. c.)” value came out at 590, the IC50 worked out at 340 nM and the Bnz/comp was 6.5. For the same compound, the IC50 in series [6] was found to be 201000 nM. In addition, in series [7], the “SI (T.b.r.)” value is reported as 25.1, the “anti-HAT activity class (TDR criteria)” value is “inactive” and the IC50 was found to be 8000 nM.
As to `O=C(Cn1cnc([N+](=O)[O-])n1)Nc1cc(-c2ccc(Cl)cc2)no1` [Compound 15, N-(3-(4-chlorophenyl)isoxazol-5-yl)-2-(3-nitro-1H-1,2,4-triazol-1-yl)acetamide], the IC50 came out at 8650 ± 490 nM in [2] (setting [13]); 12500 nM in series [4]; 1530 nM in series [5]; 112000 nM in series [6]; 15100 nM in series [7]; 1230 ± 60 nM in series [8] (setting [14]). Besides, the IC50 in series [8] (setting [15]) turned out to be 13300 ± 1400 nM. Further, in [3], the “substrate of TbNTR / rate of metabolism” value was “equivalent rates”. In addition, in [4], the “antileishmanial activity class” value was “inactive”. Further, the Bnz/comp in [5] stood at 1.4. Further, the “anti-HAT activity class (TDR criteria)” value in series [7] was “inactive”.
For the compound `O=C(CCn1cnc([N+](=O)[O-])n1)Nc1cc(-c2ccc(Cl)cc2)no1` [Compound 14, N-(3-(4-chlorophenyl)isoxazol-5-yl)-3-(3-nitro-1H-1,2,4-triazol-1-yl)propanamide], the IC50 in series [2] (setting [13]) came out at 270 ± 50 nM; in [4], 2950 nM; in series [5], 251 nM; in series [6] it was 179000 nM; in series [7] it was 651 nM; in [8] (setting [14]), 290 ± 20 nM. For the same compound, the IC50 in [8] (setting [15]) stood at 910 ± 30 nM. In series [3], the “substrate of TbNTR / rate of metabolism” value is “equivalent rates”. For the same compound, in series [4], the “antileishmanial activity class” value was “moderately active (‘moderate activity’ (IC50 between 1.0 and 6.0 μM))”. Besides, the Bnz/comp in [5] is given as 9. Further, the “anti-HAT activity class (TDR criteria)” value in series [7] was “moderately active (IC50 between 0.5 and 6.0 μM)”.
In turn, `O=C(CCn1cnc([N+](=O)[O-])n1)Nc1cccc(OCc2ccccc2)c1` [Compound 11, N-(3-(benzyloxy)phenyl)-3-(3-nitro-1H-1,2,4-triazol-1-yl)propanamide] returned a melting point of 119 to 120 °C. Further, the IC50 in series [2] (setting [13]) was found to be 4250 ± 160 nM. The “TbNTR specific enzyme activity, fold greater than benznidazole” value in [3] is at most 4 fold. In series [4], the “SI (L.d.)” value was determined as 35, the “antileishmanial activity class” value is “moderate activity” and the IC50 was found to be 1140 nM. Also, the “fold more potent against L. donovani than the acetamide analog” value in [4] (propanamide vs acetamide analog) is “ca. 3 fold”. Moreover, in series [5], the “SI (T. c.)” value is on record as 868, the IC50 is 46 nM and the Bnz/comp is on record as 48. In series [6], the IC50 stood at 40200 nM. In [7], the “SI (T.b.r.)” value is 182, the IC50 worked out at 221 nM and the “fold more potent against T. b. rhodesiense than the corresponding acetamide” value stood at 22 fold. Also, in [8] (setting [14]), the IC50 was 360 ± 20 nM. Also, the IC50 in series [8] (setting [15]) came to 3700 ± 580 nM.
For `O=C(Cn1cnc([N+](=O)[O-])n1)Nc1ccc(Oc2ccccc2)cc1` [Compound 8a], the “SI (T. c.)” value in series [9] (setting [16]) was 1416. In addition, the Bnz/comp in series [9] (previously evaluated compounds) is reported as 31. Further, the IC50 in [9] (previously evaluated compounds (orange, designated a), read-out: T. c. IC50) was 65 nM; in series [10], 2720 nM; in series [11] it was 92000 nM; in series [12], 271 nM. In addition, in [12] (setting [16]), the “SI (L.d.)” value was 339.
Take `O=C(Cn1cnc([N+](=O)[O-])n1)Nc1cccc(OCc2ccccc2)c1` [Compound 11a]: in series [9] (previously evaluated compounds), the Bnz/comp is reported as 17. In addition, in series [10] (T. b. rhodesiense, previously evaluated acetamides), the “anti-HAT activity class (TDR criteria)” value was “moderately active (IC50 between 0.5 and 6.0 μM)”. Besides, the IC50 in series [10] is 4860 nM; in [11], 68400 nM; in series [12], 3360 nM.

One may read the IC50 as the concentration that gives 50% inhibition. For orientation: melting point means the temperature, or range, at which the solid turns liquid.
